The text below walks through data of patent publication US20090291983A1, “3-Oxoisoindoline-1-Carboxamide Derivatives as Analgesic Agents” (AstraZeneca AB, priority 2006, published 2009).

T1 sequence (Q15858 whole entry): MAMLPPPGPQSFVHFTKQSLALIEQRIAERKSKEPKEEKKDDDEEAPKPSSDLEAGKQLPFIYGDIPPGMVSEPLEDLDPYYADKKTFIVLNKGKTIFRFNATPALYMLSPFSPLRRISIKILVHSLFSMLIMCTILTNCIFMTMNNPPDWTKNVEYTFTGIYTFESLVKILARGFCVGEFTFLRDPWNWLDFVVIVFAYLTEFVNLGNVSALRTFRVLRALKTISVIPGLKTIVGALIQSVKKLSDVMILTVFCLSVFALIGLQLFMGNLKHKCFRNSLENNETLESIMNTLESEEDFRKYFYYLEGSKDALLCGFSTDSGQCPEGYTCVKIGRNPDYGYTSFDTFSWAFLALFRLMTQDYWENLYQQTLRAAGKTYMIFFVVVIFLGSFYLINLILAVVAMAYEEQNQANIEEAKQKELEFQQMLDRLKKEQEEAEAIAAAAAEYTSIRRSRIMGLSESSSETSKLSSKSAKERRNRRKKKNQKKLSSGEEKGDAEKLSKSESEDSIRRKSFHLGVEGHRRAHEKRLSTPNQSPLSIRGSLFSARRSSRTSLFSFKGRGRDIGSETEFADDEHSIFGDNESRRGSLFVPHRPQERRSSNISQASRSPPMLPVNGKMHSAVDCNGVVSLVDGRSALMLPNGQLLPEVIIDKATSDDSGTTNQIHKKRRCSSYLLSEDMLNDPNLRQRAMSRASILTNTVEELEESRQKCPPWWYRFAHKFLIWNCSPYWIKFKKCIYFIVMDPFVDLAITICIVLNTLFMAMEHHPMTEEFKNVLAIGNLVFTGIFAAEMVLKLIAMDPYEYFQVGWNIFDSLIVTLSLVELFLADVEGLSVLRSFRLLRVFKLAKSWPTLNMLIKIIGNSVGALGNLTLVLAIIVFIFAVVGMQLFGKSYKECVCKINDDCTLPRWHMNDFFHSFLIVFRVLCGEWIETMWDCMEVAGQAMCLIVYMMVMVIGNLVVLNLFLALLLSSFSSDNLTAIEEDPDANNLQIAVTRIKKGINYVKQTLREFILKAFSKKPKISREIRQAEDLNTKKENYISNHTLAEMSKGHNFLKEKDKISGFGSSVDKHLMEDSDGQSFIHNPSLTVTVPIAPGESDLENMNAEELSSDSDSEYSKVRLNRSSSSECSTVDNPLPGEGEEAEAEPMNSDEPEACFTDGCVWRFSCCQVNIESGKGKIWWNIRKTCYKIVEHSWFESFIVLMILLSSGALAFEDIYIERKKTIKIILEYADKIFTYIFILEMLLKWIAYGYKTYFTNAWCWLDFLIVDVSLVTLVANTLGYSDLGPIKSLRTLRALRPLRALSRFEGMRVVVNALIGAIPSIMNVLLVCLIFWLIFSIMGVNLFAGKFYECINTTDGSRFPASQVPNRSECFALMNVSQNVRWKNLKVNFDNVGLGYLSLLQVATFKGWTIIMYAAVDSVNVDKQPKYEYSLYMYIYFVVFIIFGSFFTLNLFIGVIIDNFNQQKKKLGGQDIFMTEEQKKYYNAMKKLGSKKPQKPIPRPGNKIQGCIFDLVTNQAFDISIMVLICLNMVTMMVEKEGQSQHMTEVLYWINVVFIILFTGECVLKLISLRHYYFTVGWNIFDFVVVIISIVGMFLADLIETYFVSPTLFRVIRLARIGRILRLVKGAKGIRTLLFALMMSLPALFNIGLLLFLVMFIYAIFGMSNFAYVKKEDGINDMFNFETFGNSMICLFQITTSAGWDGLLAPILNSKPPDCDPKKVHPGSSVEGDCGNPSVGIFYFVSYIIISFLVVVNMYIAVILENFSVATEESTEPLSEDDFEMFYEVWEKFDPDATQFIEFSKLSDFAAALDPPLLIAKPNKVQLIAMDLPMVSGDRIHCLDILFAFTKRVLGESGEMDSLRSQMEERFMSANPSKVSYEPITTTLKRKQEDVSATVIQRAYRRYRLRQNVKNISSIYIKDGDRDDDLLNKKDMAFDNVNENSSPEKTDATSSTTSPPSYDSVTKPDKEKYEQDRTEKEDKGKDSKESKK

This assay addresses T1, voltage-gated sodium channel of interest (NaV1.7) (Homo sapiens, UniProt Q15858).
T1 construct: Gene(s) encoding the full-length protein of the voltage-gated sodium channel of interest are cloned and expressed; expressed in transfected cells
Briefly: Whole-cell voltage clamp electrophysiology assay (automated patch-clamp). Format: cell-based. The note with it: cells stably expressing the voltage-gated sodium channel. An excerpt: Gene(s) encoding the full-length protein of the voltage-gated sodium channel of interest are cloned and expressed under a suitable promoter in a suitable cell line, as well known in the art. The so constructed stable cell lines are used in screening assays to identify suitable compounds active on voltage-gated sodium channels. Suitable screening assays are as follows.
Electrophysiological recordings of sodium currents in cells stably expressing the voltage-gated sodium channel of interest confirms activity and provides a functional measure of the potency of compounds that specifically affect such channels.
Electrophysiological studies was performed using automated patch-clamp electrophysiology platforms, like IonWorks HT, IonWorks Quattro, PatchXpress, or any other suitable platform. The cell line expressing the voltage-gated sodium channel of interest was plated in appropriate well tissue plates, as provided by the manufacturer of the automated patch-clamp platforms. Suitable extracellular and intracellular buffer for such experiments was applied according to the instructions given by the manufacturer of the automated patch-clamp platforms. Cells that express the voltage-gated sodium channel protein of interest was exposed to drugs through the pipetting system integrated in the platforms. A suitable voltage stimulus protocol was used to activate the voltage-gated sodium channel proteins of interest. A suitable stimulus protocol consisted of eight voltage pulses, each to −20 mV and 50 ms in length, and separated from each other by 330 ms intervals at a potential of −90 mV, or −65 mV.
Electrophysiological studies can also be performed using the whole cell configuration of the standard patch clamp technique as described in the literature (26). In this assay, cells that express the human voltage-gated sodium channel protein of interest are exposed to the drugs by conventional microperfusion systems and a suitable voltage stimulus protocol is used to activate the voltage-gated sodium channels.
Background: Patch clamp records ionic current or voltage across a cell membrane.
On to `COc1ccccc1CN1C(=O)c2ccccc2C1C(=O)Nc1c(C)cccc1Cl` (stereo not shown) [Example 2, N-(2-chloro-6-methylphenyl)-2-(2-methoxybenzyl)-3-oxoisoindoline-1-carboxamide], for which the concentration for half-maximal inhibition (IC50) is 316 nM. In other words, the sub-micromolar range.
`Cc1cccc(C)c1NC(=O)C1c2ccccc2C(=O)N1CCOc1cc(C(F)(F)F)ccc1F` (stereo not shown) [Example 15, N-(2,6-dimethylphenyl)-2-{2-[2-fluoro-5-(trifluoromethyl)phenoxy]ethyl}-3-oxoisoindoline-1-carboxamide] gave a concentration for half-maximal inhibition (IC50) of 200 nM.
In turn, `COc1ccccc1CN1C(=O)c2ccccc2C1C(=O)Nc1c(Cl)cccc1Cl` (stereo not shown) [Example 16, N-(2,6-dichlorophenyl)-2-(2-methoxybenzyl)-3-oxoisoindoline-1-carboxamide] showed an IC50 of 251 nM.
Molecule `COc1cc(F)ccc1CN1C(=O)c2ccccc2C1C(=O)Nc1c(C)cccc1C` (stereo not shown) [Example 38, N-(2,6-dimethylphenyl)-2-(4-fluoro-2-methoxybenzyl)-3-oxoisoindoline-1-carboxamide] gave an IC50 of 100 nM.

As usually defined, the IC50 is the midpoint of a concentration-inhibition curve.
